We go through 1 compound from patent US12403139B2, “Methods and compositions for prevention and treatment of cardiac hypertrophy” (University of Hawaii, priority 2010, dated 2025).

The test system of test [1] is WT mice exposed to TAC. Nature of the test: Histological analysis of the heart 36 days post TAC (WGA-Alexa488 and picrosirius red staining). In kind it is in vivo. To be noted: BCTC treated TAC mice vs vehicle treated TAC mice. Here is the method: Tissue preparation for histology. […] For histology, hearts were perfused with phosphate-buffered saline and 10% formalin in situ, collected immediately, and fixed overnight in 10% formalin at 4° C. Tissues were then cut in a sagittal orientation, embedded in paraffin, mounted on glass slides, and stored until use. Paraffin-embedded sections were stained for the following:
Collagen: Collagen volume fraction was determined by analysis of picrosirius stained sections. Sections cut to 5 μm thickness were deparaffinized, stained with Weigert's hematoxylin, then stained with picrosirius red (0.1% Sirius Red in picric acid). Sections were subsequently washed and dehydrated before image analysis.
Cardiomyocyte cross sectional area: Heart sections were deparaffinized and permeabilized, then stained with wheat germ-agglutinin conjugated to Alexa488 (WGA-Alexa488, Invitrogen, W11261) at a concentration of 50 μg/mL to identify sarcolemmal membranes and measure cardiomyocyte cross sectional area (described below).
Image collection and analysis. […] Fibrosis and cross-sectional cardiomyocyte area were quantified using ImageJ software (NIH). To quantify fibrosis, collagen fibers were highlighted, and the red-stained pixels were counted to determine the percentage of pixels in each field that represented collagen fibers. […]

The subject of test [2] is WT mice exposed to TAC. Nature of the test: Pressure overload cardiac hypertrophy by transverse aortic constriction (TAC): heart weight and echocardiography. In kind it is in vivo. The protocol:
Transverse Aortic Constriction (TAC). Transverse aortic constriction was performed as described by Rockman, producing left ventricular hypertrophy by constriction of the aorta (Rockman et al., 1994; Rockman et al., 1991). The left side of the chest was depilated with Nair and a baseline 2-D echocardiogram was obtained. Mice were then deeply anesthetized with a mixture of ketamine and xylazine. The transverse aorta between the brachiocephalic and left carotid artery was banded using 6-0 silk ligature around the vessel and a 26 G blunt needle, after which the needle was withdrawn. Sham surgeries were identical apart from the constriction of the aorta.
Transthoracic echocardiography. Baseline and post TAC transthoracic echocardiography were used to assess changes in mouse heart dimensions and function. Briefly, after two days of acclimatization and depilation, unanesthetized transthoracic echocardiography was performed using a 30-Mhz transducer (Vevo 770, VisualSonics). High quality two-dimensional images and M-mode images of the left ventricle were recorded. Measurements of left ventricular end-diastolic (LVIDd) and end-systolic (LVIDs) internal dimensions were performed by the leading edge to leading edge convention adopted by the American Society of Echocardiography. The left ventricular ejection fraction (% EF) was calculated as (LV Vol; d-LV Vol; s/LV Vol; d×100) (Visualsonics Inc.).
Osmotic pump installation. Long term (up to 42 day) infusion of drugs can be accomplished by insertion of osmotic pumps without the need for repeated injection. Mice are placed under a low plane of anesthesia with an injection of Ketamine/Xylazine anesthetic (50 mg/10 mg·Kg) intraperitoneally (IP) 10 minutes prior to surgery. A small area between shoulder blades is shaved and sterilized with Povidine swab. A small incision is made in this area and blunt dissected below skin to allow placement of an Alzet osmotic pump (model 2006), previously loaded with the drug of choice under the skin between the shoulder blades where it is inaccessible to the mouse. Several stitches are applied to close the incision. The mouse is placed in regular housing on a warming mat until completely conscious, after which mice are then returned to regular housing room.
The mice were subjected to pressure overload induced cardiac hypertrophy by TAC while administered 4 mg/kg of BCTC (in 20% wt/vol 2-Hydroxypropyl)-β-cyclodextrin/PBS) throughout the entire experiment using osmotic pumps (Alzet, Model 2006) pumping continuously at a rate of 0.15 ul/hr. The test was limited to ˜42 days (max) by the function of the pumps, as such the experiment was halted at 36 days post TAC, as pumps are installed previous to the TAC to allow recovery before the TAC surgery. […] This protection from dilation of the left ventricle translates to a protection in the function of the heart as measured by ejection fraction (% EF, p<0.05) and fractional shortening (% FS).

In the case of `CC(C)(C)c1ccc(NC(=O)N2CCN(c3ncccc3Cl)CC2)cc1` [BCTC, N-(4-tertiarybutylphenyl)-4-(3-chloropyridin-2-yl)tetrahydropyrazine-1(2H)-carboxamide], the “cardiomyocyte cross sectional area” value with WT mice exposed to TAC [1] (p=<0.01, n=100 (FIG. 9A)) is “significantly smaller myocytes in BCTC treated TAC mice than vehicle treated TAC control mice”. For the same compound, the “interstitial collagen (area of collagen staining as a percentage of tissue area)” value in the test on WT mice exposed to TAC [1] (picrosirius red, p=0.05 (FIG. 9B)) is reported as “significantly less interstitial collagen in BCTC treated TAC mice than vehicle treated TAC control mice”. The “fractional shortening (% FS)” value in the test on WT mice exposed to TAC [2] (TAC mice, 4 mg/kg BCTC by osmotic pump, 36 days post TAC, vs vehicle, p<0.01 (FIG. 8E)) was “significantly diminished at 36 days post TAC compared to drug-treated mice”. The “ejection fraction (% EF)” value in the test with WT mice exposed to TAC [2] (TAC mice, 4 mg/kg BCTC by osmotic pump, 36 days post TAC, vs vehicle, p<0.05 (FIG. 8D)) was “significantly diminished at 36 days post TAC compared to drug-treated mice”. Besides, in the test on WT mice exposed to TAC [2] (TAC mice, 4 mg/kg BCTC by osmotic pump, 36 days post TAC, vs vehicle, p=0.035 (FIG. 8A)), the “heart weight/body weight ratio” value is given as “significantly greater in vehicle treated WT mice than drug treated mice”. In addition, the “left ventricular internal diameter end-diastolic (LVIDd), TAC mice” value in the test with WT mice exposed to TAC [2] (TAC mice, 4 mg/kg BCTC by osmotic pump, zero to 36 days, vs vehicle, significantly different after 18 days, p<0.001 (FIG. 8C)) is given as “significantly smaller LVIDd than the vehicle treated TAC mice”. For the same compound, the “LVIDd over time in TAC mice” value with WT mice exposed to TAC [2] (TAC mice, 4 mg/kg BCTC by osmotic pump, vehicle mice start increasing diameter at 9 days) is listed as “the diameter is maintained for the duration of the test”. Besides, the “left ventricular internal diameter (LVID,d), sham mice” value in the test on WT mice exposed to TAC [2] (sham mice, BCTC vs vehicle, echocardiography every 9 days (FIG. 8B)) is recorded as “no difference”.
